In US10159640B2, “Prebiotic oral care compositions containing amino acids” (COLGATE-PALMOLIVE COMPANY, priority 2013, dated 2018):

What was measured:
Experiment in all cases: Extent of growth, growth curves in BHI
Assay type in all cases: cell-based
Conditions in all cases: control = 1
Actinomyces naeslundii = system: Actinomyces naeslundii
Method: (§1) The extent of growth of the tested bacteria in response to selected compounds (Met-Pro, Phe-Glu) was investigated by setting up growth curves in a nutritionally rich medium (brain heart infusion broth (BHI), Oxoid), over 48 hours. Late exponential growth phase liquid cultures were prepared by transferring the respective bacterium from blood agar plates to BHI and overnight incubation at 37° C. in an anaerobic atmosphere for A. viscosus, V. parvula, F. nucleatum, P. gingivalis, P. intermedia, T. forsythia, A. naeslundii, and C. sputigena, and in a 5% CO2 environment for S. salivarius, S. sanguinis, S. mitis, A. actinomycetemcomitans, S. mutans, S. sobrinus and S. gordonii. Overnight cultures were transferred to BHI and adjusted to a concentration of 1×10^7 CFU/ml (colony forming units per ml) by measuring the optical density at 600 nm (OD600) (BioRad SmartSpec 3000). For each strain, 200 μl of the bacterial suspension was added to a 96-well plate containing 20 μl of the respective di-peptides. Final concentrations of the di-peptides were set to 5, 10, 20 and 25 μmol/ml. […] Plates were incubated as previously described.
(§2) For each combination of bacterium/dipeptide, and for each of their respective controls (i.e. the particular bacterium in the nutritionally rich medium with no dipeptide), the optical density was measured at 630 nm (OD630) at 0 h, 24 h and 48 h (Thermo Scientific Multiskan Ascent). Additionally, the OD630 for combinations of bacterium/dipeptide grown in a 5% CO2 environment were also measured every hour between 0 h and 9 h.
(§3) The experiment was carried out on three different days (thus providing 3 biological replicas) and on each day the experiment was carried out in quadruple (thus providing 4 technical replicas) for each combination of bacterium with dipeptide and for each control. For each day and for each combination, the average (mean) of the values obtained (as detailed above) for the four technical replicas was calculated to provide a single value for each combination on each day. The values shown in Tables 5 to 6, below, are the average (mean) of the three single values obtained for each combination of bacterium with dipeptide.

Actinomyces viscosus = system: Actinomyces viscosus
Method: as §1, §2, §3

[1] = system: Aggregatibacter actinomycetemcomitans
Method: as §1, §2, §3

Capnocytophaga sputigena = system: Capnocytophaga sputigena
Method: as §1, §2, §3

Fusobacterium nucleatum = system: Fusobacterium nucleatum
Method: as §1, §2, §3

Porphyromonas gingivalis = system: Porphyromonas gingivalis
Method: as §1, §2, §3

Streptococcus gordonii = system: Streptococcus gordonii
Method: as §1, §2, §3

Streptococcus mitis = system: Streptococcus mitis
Method: as §1, §2, §3

Streptococcus mutans = system: Streptococcus mutans
Method: as §1, §2, §3

Streptococcus salivarius = system: Streptococcus salivarius
Method: as §1, §2, §3

Streptococcus sobrinus = system: Streptococcus sobrinus
Method: as §1, §2, §3

Tannerella forsythia = system: Tannerella forsythia
Method: as §1, §2, §3

Veillonella parvula = system: Veillonella parvula
Method: as §1, §2, §3

Met-Pro
extent of growth: maximal OD630 over 48 hr divided by maximal OD of control (Actinomyces naeslundii; 5 μmol/ml): 0.8420
extent of growth: maximal OD630 over 48 hr divided by maximal OD of control (Actinomyces naeslundii; 10 μmol/ml): 0.8131
extent of growth: maximal OD630 over 48 hr divided by maximal OD of control (Actinomyces naeslundii; 20 μmol/ml): 0.5466
extent of growth: maximal OD630 over 48 hr divided by maximal OD of control (Actinomyces naeslundii; 25 μmol/ml): 0.3360
extent of growth: maximal OD630 over 48 hr divided by maximal OD of control (Actinomyces viscosus; 5 μmol/ml): 0.4873
extent of growth: maximal OD630 over 48 hr divided by maximal OD of control (Actinomyces viscosus; 10 μmol/ml): 0.4102
extent of growth: maximal OD630 over 48 hr divided by maximal OD of control (Actinomyces viscosus; 20 μmol/ml): 0.3154
extent of growth: maximal OD630 over 48 hr divided by maximal OD of control (Actinomyces viscosus; 25 μmol/ml): 0.2498
extent of growth: maximal OD630 over 48 hr divided by maximal OD of control ([1]; 5 μmol/ml): 0.7454
extent of growth: maximal OD630 over 48 hr divided by maximal OD of control ([1]; 10 μmol/ml): 0.6321
extent of growth: maximal OD630 over 48 hr divided by maximal OD of control ([1]; 20 μmol/ml): 0.3282
extent of growth: maximal OD630 over 48 hr divided by maximal OD of control ([1]; 25 μmol/ml): 0.2297
extent of growth: maximal OD630 over 48 hr divided by maximal OD of control (Capnocytophaga sputigena; 5 μmol/ml): 0.9618
extent of growth: maximal OD630 over 48 hr divided by maximal OD of control (Capnocytophaga sputigena; 10 μmol/ml): 3.5579
extent of growth: maximal OD630 over 48 hr divided by maximal OD of control (Capnocytophaga sputigena; 20 μmol/ml): 2.9796
extent of growth: maximal OD630 over 48 hr divided by maximal OD of control (Capnocytophaga sputigena; 25 μmol/ml): 0.9701
extent of growth: maximal OD630 over 48 hr divided by maximal OD of control (Fusobacterium nucleatum; 5 μmol/ml): 0.8422
extent of growth: maximal OD630 over 48 hr divided by maximal OD of control (Fusobacterium nucleatum; 10 μmol/ml): 0.8667
extent of growth: maximal OD630 over 48 hr divided by maximal OD of control (Fusobacterium nucleatum; 20 μmol/ml): 0.7782
extent of growth: maximal OD630 over 48 hr divided by maximal OD of control (Fusobacterium nucleatum; 25 μmol/ml): 0.7273
extent of growth: maximal OD630 over 48 hr divided by maximal OD of control (Porphyromonas gingivalis; 5 μmol/ml): 0.8702
extent of growth: maximal OD630 over 48 hr divided by maximal OD of control (Porphyromonas gingivalis; 10 μmol/ml): 0.8266
extent of growth: maximal OD630 over 48 hr divided by maximal OD of control (Porphyromonas gingivalis; 20 μmol/ml): 0.7021
extent of growth: maximal OD630 over 48 hr divided by maximal OD of control (Porphyromonas gingivalis; 25 μmol/ml): 0.4276
extent of growth: maximal OD630 over 48 hr divided by maximal OD of control (Streptococcus gordonii; 5 μmol/ml): 0.9757
extent of growth: maximal OD630 over 48 hr divided by maximal OD of control (Streptococcus gordonii; 10 μmol/ml): 0.9528
extent of growth: maximal OD630 over 48 hr divided by maximal OD of control (Streptococcus gordonii; 20 μmol/ml): 0.7735
extent of growth: maximal OD630 over 48 hr divided by maximal OD of control (Streptococcus gordonii; 25 μmol/ml): 0.6853
extent of growth: maximal OD630 over 48 hr divided by maximal OD of control (Streptococcus mitis; 5 μmol/ml): 0.9134
extent of growth: maximal OD630 over 48 hr divided by maximal OD of control (Streptococcus mitis; 10 μmol/ml): 1.2332
extent of growth: maximal OD630 over 48 hr divided by maximal OD of control (Streptococcus mitis; 20 μmol/ml): 1.8922
extent of growth: maximal OD630 over 48 hr divided by maximal OD of control (Streptococcus mitis; 25 μmol/ml): 1.7501
extent of growth: maximal OD630 over 48 hr divided by maximal OD of control (Streptococcus mutans; 5 μmol/ml): 0.9473
extent of growth: maximal OD630 over 48 hr divided by maximal OD of control (Streptococcus mutans; 10 μmol/ml): 0.9083
extent of growth: maximal OD630 over 48 hr divided by maximal OD of control (Streptococcus mutans; 20 μmol/ml): 0.7929
extent of growth: maximal OD630 over 48 hr divided by maximal OD of control (Streptococcus mutans; 25 μmol/ml): 0.5618
extent of growth: maximal OD630 over 48 hr divided by maximal OD of control (Streptococcus salivarius; 5 μmol/ml): 0.9729
extent of growth: maximal OD630 over 48 hr divided by maximal OD of control (Streptococcus salivarius; 10 μmol/ml): 1.0153
extent of growth: maximal OD630 over 48 hr divided by maximal OD of control (Streptococcus salivarius; 20 μmol/ml): 0.7572
extent of growth: maximal OD630 over 48 hr divided by maximal OD of control (Streptococcus salivarius; 25 μmol/ml): 0.5262
extent of growth: maximal OD630 over 48 hr divided by maximal OD of control (Streptococcus sobrinus; 5 μmol/ml): 0.9294
extent of growth: maximal OD630 over 48 hr divided by maximal OD of control (Streptococcus sobrinus; 10 μmol/ml): 1.0301
extent of growth: maximal OD630 over 48 hr divided by maximal OD of control (Streptococcus sobrinus; 20 μmol/ml): 1.0167
extent of growth: maximal OD630 over 48 hr divided by maximal OD of control (Streptococcus sobrinus; 25 μmol/ml): 0.8547
extent of growth: maximal OD630 over 48 hr divided by maximal OD of control (Tannerella forsythia; 5 μmol/ml): 0.9244
extent of growth: maximal OD630 over 48 hr divided by maximal OD of control (Tannerella forsythia; 10 μmol/ml): 0.9743
extent of growth: maximal OD630 over 48 hr divided by maximal OD of control (Tannerella forsythia; 20 μmol/ml): 0.7533
extent of growth: maximal OD630 over 48 hr divided by maximal OD of control (Tannerella forsythia; 25 μmol/ml): 0.7018
extent of growth: maximal OD630 over 48 hr divided by maximal OD of control (Veillonella parvula; 5 μmol/ml): 0.9980
extent of growth: maximal OD630 over 48 hr divided by maximal OD of control (Veillonella parvula; 10 μmol/ml): 0.9808
extent of growth: maximal OD630 over 48 hr divided by maximal OD of control (Veillonella parvula; 20 μmol/ml): 0.9516
extent of growth: maximal OD630 over 48 hr divided by maximal OD of control (Veillonella parvula; 25 μmol/ml): 0.9671
